# “And” between values parts separate entries of the source, which are not always exact repeats. Identical values can stand only once.
# Columns and labels:
# Dvl-3 PDZ [1] = target: T1, Dvl-3 PDZ (Homo sapiens, UniProt Q92997); assay: Binding constant by isothermal titration calorimetry (ITC); settings: for Kd: by ITC, one-site binding model, 25 °C, read-out: K D Dvl-3 PDZ; for n (stoichiometry) Dvl-3 PDZ: ITC one-site fit
# T1 construct: spectra of Dvl-3 PDZ in the absence and presence of the compound; His-tag (cleaved yes); made in house
# T1 sequence (Q92997 243-336): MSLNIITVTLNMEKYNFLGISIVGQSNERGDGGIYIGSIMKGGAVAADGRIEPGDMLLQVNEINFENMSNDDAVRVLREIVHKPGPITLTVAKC
# Procedure: (§2) Isothermal titration calorimetry (ITC) experiments were performed using a VP-ITC system (MicroCal). Protein in 20 mM HEPES buffer and 50 mM NaCl (pH 7.4) was centrifuged and degassed before the experiment. A 200 µM ligand solution containing 2 % DMSO was injected 30 times in 10 µL aliquots at 120 s intervals with a stirring speed of 1000 rpm into a 1.4 mL sample cell containing the Dvl PDZ domain at a concentration of 20 µM at 25 ^∘ C. Control experiment was initially determined by titrating ligand into buffer at the same conditions. […] Thermodynamic properties and binding constants were determined by fitting the data with a non-linear least-squares routine using a single-site binding model with Origin (OriginLab) for ITC v.7.2 (MicroCal).
# Dvl-3 PDZ [2] = target: T1, Dvl-3 PDZ; assay: NMR 1H-15N HSQC chemical shift perturbation; format: binding; settings: for Chemical shift perturbation ΔCSP: Dvl-3 PDZ, average of the three strongest shifting cross peaks
# Procedure: The results of virtual screening were checked experimentally by comparing 2D ^1H-^15N HSQC (heteronuclear single quantum correlation) spectra of Dvl-3 PDZ in the absence and presence of the compound to elucidate ligand-induced changes of chemical shifts. Chemical shift perturbation differences ( Δ CSP, representing the average of the three strongest shifting cross peaks according to Eq. 1) were evaluated in cases where the residues responding strongest are inside the area defined by Fig. 1a. […] In most cases, the signals of residues S263, V287, and R320 (Fig. 1a) within the conserved binding site were most strongly perturbed (Fig. S2). With the Δ CSP of 0.12 ppm, the isoleucine-derived compound 1 ((2,3-dihydrobenzo[b][1,4]dioxin-6-yl)sulfonyl)-L-isoleucine containing a sulfonamide moiety was detected initially as one of the best “hits” according to chemical shift changes. The sulfonamide is a well-known moiety in drug discovery (Mathvink et al., 1999; Wu et al., 1999; Sleight et al., 1998; O'Brien et al., 2000; Tellew et al., 2003).
# Two-dimensional ^1H-^15N HSQC spectra were used to screen a library of 212 compounds designed by the company Enamine for PDZ domains. 50 µM of ^15N -labelled protein samples was prepared in a 20 mM sodium phosphate buffer, containing 50 mM sodium chloride, 0.02 % ( w/v ) NaN3 , at pH 7.4. Stock solutions of small molecules were prepared in DMSO-d6 at a concentration of 160 mM. A ^1H-^15N HSQC spectrum of Dvl PDZ was acquired at 300 K with 5 % DMSO-d6 in the absence of ligand as reference spectrum. Mixtures of 16 compounds were added to ^15N -labelled Dvl PDZ at eightfold molar excess each. The final concentration of DMSO-d6 in the protein–ligand solutions was 5 %. Spectra were acquired with eight scans and 256 points in the indirect dimension. […] The active compound was obtained through successive deconvolution. Experiments were recorded on a Bruker DRX600 spectrometer equipped with a triple-resonance cryoprobe. The preparation of samples was done automatically by a Tecan Genesis RSP 150 pipetting robot. Spectra were analysed using the programs TOPSPIN and SPARKY (Goddard and Kneller, 2003).
# 50 µM of ^15N -labelled protein samples was prepared in a 20 mM sodium phosphate buffer containing 50 mM sodium chloride, 0.02 % ( w/v ) NaN3 , at pH 7.4. Stock solutions of small molecules were prepared in DMSO-d6 at a concentration of 160 mM. A ^1H-^15N HSQC spectrum of Dvl PDZ was acquired at 300 K with 5 % DMSO-d6 in the absence of ligand as reference spectrum. Mixtures of 16 compounds were added to ^15N -labelled Dvl PDZ at eightfold molar excess each. The final concentration of DMSO-d6 in the protein–ligand solutions was 5 %. Spectra were acquired with eight scans and 256 points in the indirect dimension.
# The active compound was obtained through successive deconvolution. Experiments were recorded on a Bruker DRX600 spectrometer equipped with a triple-resonance cryoprobe. The preparation of samples was done automatically by a Tecan Genesis RSP 150 pipetting robot. Spectra were analysed using the programs TOPSPIN and SPARKY.
# MTT cell viability assay = format: cell-based; settings: human; HEK293 cells, 24 h after treatment; read-out: EC 50 cell viability
# Procedure: These compounds were selected due to different substituents at the R 1 , including halogens. […] In this way, we aimed to develop both potent and less-toxic cell-permeable inhibitors. […] Their binding constants almost have the same value despite the different substituents (bromine or chlorine) at the pyrrole rings. […] Instead, a π – π stacking interaction with F259 was observed (Fig. S3i).
# HEK293 cells were plated on a 96-well plate and treated with different concentrations of Dvl inhibitors. After 24 h treatment, 20 µL of MTT solution (5 mg mL ^-1 ) was added into each well. After 2 h incubation, cell culture medium was replaced with 50 µL DMSO, and the signal of the purple formazan, produced by living cells, was measured by a plate reader.
# Dvl-3 PDZ [3] = assay: Binding constant by NMR titration; parameters: species or system human; settings: from NMR K D values
# From the text: (§1) K D is the equilibrium dissociation constant.
# Dvl-3 PDZ [4] = target: T1, Dvl-3 PDZ; assay: Binding constant by NMR titration; settings: by NMR; mean ± SD of at least six residues; read-out: K D Dvl-3 PDZ
# From the text: as §1
# Dvl-1 PDZ = target: T2, Dvl-1 PDZ (Homo sapiens, UniProt O14640, C338S/V250I); settings: ITC
# T2 sequence (O14640 245-338 V250I/C338S): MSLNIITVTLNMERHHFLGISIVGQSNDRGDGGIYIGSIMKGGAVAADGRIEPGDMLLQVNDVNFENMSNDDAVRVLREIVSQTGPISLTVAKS
# Procedure: as §2
compound,measurement,setting,value
"O=C(Cc1ccccc1)Nc1cccc(C(=O)Nc2ccccc2C(=O)O)c1 [CBC-322338/3289-8625, reference compound]",binding to Dvl-3 PDZ (in words),Dvl-3 PDZ [1]; ITC,did not show
same,Kd,Dvl-3 PDZ [1],> 400 µM
same,Chemical shift perturbation ΔCSP,Dvl-3 PDZ [2],around 0.1 ppm
same,Kd,"Dvl-3 PDZ [2]; estimated from NMR CSP comparison and weak heat in ITC, read-out: binding affinity to Dvl-3",< 50 µM
"CC[C@H](C)[C@H](NS(=O)(=O)c1ccc2c(c1)OCCO2)C(=O)O [Compound 1, ((2,3-dihydrobenzo[b][1,4]dioxin-6-yl)sulfonyl)-L-isoleucine]",Chemical shift perturbation ΔCSP,Dvl-3 PDZ [2],0.12 ppm
CN1C(=O)Cc2cc(S(=O)(=O)Nc3ccc(F)cc3C(=O)O)ccc21 [Compound 2],Chemical shift perturbation ΔCSP,Dvl-3 PDZ [2],> 0.2 ppm
O=C(O)c1cc(F)ccc1NS(=O)(=O)c1ccc2c(c1)CCC2 [Compound 3],EC50 at 24 h,MTT cell viability assay,61 to 131 µM
same,discrimination between Dvl-3 PDZ and Dvl-1 PDZ (in words),Dvl-3 PDZ [3],did not distinguish
same,Kd,Dvl-3 PDZ [4],80.6 ± 6.1 µM
Cc1ccc(S(=O)(=O)Nc2ccc(F)cc2C(=O)O)cc1C [Compound 4],discrimination between Dvl-3 PDZ and Dvl-1 PDZ (in words),Dvl-3 PDZ [3],did not distinguish
same,Kd,Dvl-3 PDZ [4],83.9 ± 7.8 µM
CS(=O)(=O)Nc1ccc(F)cc1C(=O)O [Compound 6],binding to Dvl-3 PDZ (in words),Dvl-3 PDZ [1]; ITC,millimolar (mM) range
same,Kd,Dvl-3 PDZ [1],> 1000 µM
O=C(O)c1cc(Br)ccc1NS(=O)(=O)c1ccc2c(c1)CCCC2 [Compound 7],EC50 at 24 h,MTT cell viability assay,61 to 131 µM
same,Kd,Dvl-3 PDZ [4],20.6 ± 2.4 µM
"O=C(O)c1cc(C(F)(F)F)ccc1NS(=O)(=O)c1ccc2c(c1)CCCC2 [Compound 8, 2-(5,6,7,8-Tetrahydronaphthalene-2-sulfonamido)-5-(trifluoromethyl) benzoic acid]",EC50 at 24 h,MTT cell viability assay,61 to 131 µM
same,Kd,Dvl-3 PDZ [1],17.4 ± 0.5 µM
O=C(O)c1cc(Cl)ccc1NS(=O)(=O)c1ccc2c(c1)CCCC2 [Compound 9],EC50 at 24 h,MTT cell viability assay,61 to 131 µM
same,Kd,Dvl-3 PDZ [4],41.1 ± 3.1 µM
Cc1ccc(NS(=O)(=O)c2ccc3c(c2)CCCC3)c(C(=O)O)c1 [Compound 10],EC50 at 24 h,MTT cell viability assay,61 to 131 µM
same,Kd,Dvl-3 PDZ [4],62.5 ± 4.7 µM
"O=C(O)c1cc(Br)ccc1NS(=O)(=O)c1ccc2ccccc2c1 [Compound 11, 5-Bromo-2-(naphthalene-2-sulfonamido) benzoic acid]",Kd,Dvl-3 PDZ [1],13.8 µM
"O=C(O)c1cc(Br)ccc1NS(=O)(=O)Cc1ccccc1 [Compound 12, 5-Bromo-2-(phenylmethylsulfonamido)benzoic acid]",Kd,Dvl-3 PDZ [1],58.5 µM
"O=C(O)c1cc(Br)ccc1NS(=O)(=O)c1ccc(COc2ccccc2)cc1 [Compound 13, 5-Bromo-2-(4-(phenoxymethyl)phenylsulfonamido)benzoic acid]",Kd,Dvl-3 PDZ [1],7.2 µM
"Cc1cc(C)c(S(=O)(=O)Nc2ccc(Br)cc2C(=O)O)c(C)c1 [Compound 14, 5-Bromo-2-(2,4,6-trimethylphenylsulfoamido)benzoic acid]",Kd,Dvl-3 PDZ [1],58.1 ± 2.1 µM
"CC(=O)c1ccc(S(=O)(=O)Nc2ccc(C(F)(F)F)cc2C(=O)O)cc1 [Compound 15, 2-(4-Acetylphenylsulfoamido)-5-(trifluoromethyl)benzoic acid]",Kd,Dvl-3 PDZ [1],52.9 ± 1.7 µM
"O=C(O)c1cc(C(F)(F)F)ccc1NS(=O)(=O)c1ccc2c(c1)OCCO2 [Compound 16, 2-(2,3-Dihydrobenzo[b][1,4]dioxine-6-sulfonamido)-5-(trifluoromethyl)benzoic acid]",Kd,Dvl-3 PDZ [1],59.1 ± 1.5 µM
"Cc1cc(C)c(S(=O)(=O)Nc2ccc(C(F)(F)F)cc2C(=O)O)c(C)c1 [Compound 17, 5-(Trifluoromethyl)-2-(2,4,6-trimethylphenylsulfoamido)benzoic acid]",Kd,Dvl-3 PDZ [1],49.5 µM
Cc1ccc(NS(=O)(=O)c2ccc(CNC(=O)c3c[nH]c4ccccc34)c(Cl)c2)c(C(=O)O)c1 [Compound 19],T Δ S Dvl-1 PDZ,Dvl-1 PDZ,-0.3 kcal mol ^-1
same,Δ G Dvl-1 PDZ,Dvl-1 PDZ,-7.0 kcal mol ^-1
same,Δ H Dvl-1 PDZ,Dvl-1 PDZ,-7.3 kcal mol ^-1
same,T Δ S Dvl-3 PDZ,Dvl-3 PDZ [1]; ITC,0.4 kcal mol ^-1
same,Δ H Dvl-3 PDZ,Dvl-3 PDZ [1]; ITC,-5.9 kcal mol ^-1
same,Kd,Dvl-3 PDZ [1],21.8 µM and 21 µM
"O=C(O)c1cccc(S(=O)(=O)Nc2cccc(S(=O)(=O)Nc3ccccc3C(=O)O)c2)c1 [NPL-1011, 3-( {3-[(2-carboxyphenyl)sulfamoyl]phenyl}sulfamoyl)benzoic acid, reference compound]",n (stoichiometry) Dvl-3 PDZ,Dvl-3 PDZ [1],0.90 ± 0.08
same,-tΔS Dvl-3 PDZ,"Dvl-3 PDZ [1]; ITC, Fig. S7",-2.8 kcal/mol
same,Δ G Dvl-3 PDZ,"Dvl-3 PDZ [1]; ITC, Fig. S7",-5.5 kcal/mol
same,Δ H Dvl-3 PDZ,"Dvl-3 PDZ [1]; ITC, Fig. S7",-2.7 ± 1.2 kcal/mol
same,Kd,Dvl-3 PDZ [1],79.7 ± 53.3 µM
"CC(C)[C@H](OC(=O)[C@H](C)NC(=O)[C@@H](OC(=O)[C@H](C)NC(=O)OC(C)(C)C)C(C)C)C(=O)O [NSC668036, reference compound]",binding to Dvl-3 PDZ (in words),Dvl-3 PDZ [1]; ITC,did not show high-affinity binding
same,Kd,Dvl-3 PDZ [1],> 400 µM
"CC1=C(CC(=O)O)c2cc(F)ccc2/C1=C\c1ccc([S+](C)[O-])cc1 (centres unmarked) [Sulindac, reference compound]",n (stoichiometry) Dvl-3 PDZ,Dvl-3 PDZ [1],0.97 ±0.14
same,-tΔS Dvl-3 PDZ,"Dvl-3 PDZ [1]; ITC, Fig. S7",24.9 kcal/mol
same,Δ H Dvl-3 PDZ,"Dvl-3 PDZ [1]; ITC, Fig. S7",-31.9 kcal/mol
